Measured values reported in ChEMBL document CHEMBL4261619, “Sentulic acid isolated from Sandoricum koetjape Merr attenuates lipopolysaccharide and interferon gamma co-stimulated nitric oxide production in murine macrophage RAW264 cells” (Bioorg Med Chem Lett, 2018).
The source made the active and inactive calls. No cut-off for these calls is given here.

Experiments:
[1] = target: T1, Toll-like receptor 4 (Mus musculus) (UniProt Q9QUK6); experiment: Inhibition of LPS binding to TLR4 in IFNgamma-stimulated mouse RAW264.7 cells assessed as reduction in nitric oxide production at 25 to 100 uM pretreated for 2 hrs followed by LPS/IFNgamma stimulation and measured after 24 hrs; format: cell-based
T1 sequence (whole entry): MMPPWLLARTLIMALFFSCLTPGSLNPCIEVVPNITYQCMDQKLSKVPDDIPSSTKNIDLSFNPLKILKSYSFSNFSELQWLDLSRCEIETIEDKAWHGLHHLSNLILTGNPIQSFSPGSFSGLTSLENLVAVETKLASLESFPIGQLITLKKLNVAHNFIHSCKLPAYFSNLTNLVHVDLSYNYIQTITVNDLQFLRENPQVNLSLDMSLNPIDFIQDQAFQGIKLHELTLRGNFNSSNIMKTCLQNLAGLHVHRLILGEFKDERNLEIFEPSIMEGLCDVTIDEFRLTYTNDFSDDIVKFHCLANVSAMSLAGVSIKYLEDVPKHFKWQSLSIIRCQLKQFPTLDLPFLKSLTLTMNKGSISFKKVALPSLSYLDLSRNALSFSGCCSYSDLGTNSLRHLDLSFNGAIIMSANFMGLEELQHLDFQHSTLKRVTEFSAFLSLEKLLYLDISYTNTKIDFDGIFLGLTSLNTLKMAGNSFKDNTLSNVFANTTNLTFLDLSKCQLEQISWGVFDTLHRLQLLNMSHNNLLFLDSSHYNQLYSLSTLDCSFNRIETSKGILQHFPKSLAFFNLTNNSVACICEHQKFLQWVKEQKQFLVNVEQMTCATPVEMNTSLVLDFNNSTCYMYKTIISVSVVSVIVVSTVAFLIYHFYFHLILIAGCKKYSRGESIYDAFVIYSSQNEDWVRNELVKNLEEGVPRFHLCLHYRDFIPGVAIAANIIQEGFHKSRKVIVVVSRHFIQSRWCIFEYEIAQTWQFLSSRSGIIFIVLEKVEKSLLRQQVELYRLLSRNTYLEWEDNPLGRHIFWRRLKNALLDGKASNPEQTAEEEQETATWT

[2] = target: T1, Toll-like receptor 4 (Mus musculus); experiment: Inhibition of LPS binding to TLR4 in IFNgamma-stimulated mouse RAW264.7 cells assessed as reduction in nitric oxide production pretreated for 2 hrs followed by LPS/IFNgamma stimulation and measured after 24 hrs; format: cell-based

Row | SMILES | inhibition [1] | inhibition [2]
1 | CC1(C)CC[C@]2(C)CC[C@]3(C(=O)O)C(=CC[C@@H]4[C@@]5(C)CCC(=O)C(C)(C)[C@@H]5CC[C@]43C)[C@@H]2C1 | inactive | –
2 | C[C@H]1[C@H](C)CC[C@]2(C(=O)O)CC[C@]3(C)C(=CC[C@@H]4[C@@]5(C)CC[C@H](O)C(C)(C)[C@@H]5CC[C@]43C)[C@H]12 | – | Dose-dependent effect
3 | C=C(C)[C@@H]1CC[C@]2(C(=O)O)CC[C@]3(C)[C@H](CC[C@@H]4[C@@]5(C)CC[C@H](O)C(C)(C)[C@@H]5CC[C@]43C)[C@@H]12 | inactive | –
4 | CC1(C)CC[C@]2(C(=O)O)CC[C@]3(C)C(=CC[C@@H]4[C@@]5(C)CC[C@H](O)C(C)(C)[C@@H]5CC[C@]43C)[C@@H]2C1 | inactive | –
5 | CC1(C)[C@@H](O)CC[C@]2(C)[C@H]3C(=O)C=C4[C@@H]5C[C@@](C)(C(=O)O)CC[C@]5(C)CC[C@@]4(C)[C@]3(C)CC[C@@H]12 | inactive | –
